The values below come from patent US20160145257A1, “SUBSTITUTED XANTHINES AND METHODS OF USE THEREOF” (Hydra Biosciences, Inc., priority 2013, published 2016).

Where a name gives a salt, the structure may show the parent alone.

This test addresses T1, hTRPC5 (Homo sapiens, UniProt Q9UL62).
T1 construct: expressed in transfected cells; host or cells: HEK293 TREx cells with inducible TRPC5 expression
T1 sequence (Q9UL62 1-973): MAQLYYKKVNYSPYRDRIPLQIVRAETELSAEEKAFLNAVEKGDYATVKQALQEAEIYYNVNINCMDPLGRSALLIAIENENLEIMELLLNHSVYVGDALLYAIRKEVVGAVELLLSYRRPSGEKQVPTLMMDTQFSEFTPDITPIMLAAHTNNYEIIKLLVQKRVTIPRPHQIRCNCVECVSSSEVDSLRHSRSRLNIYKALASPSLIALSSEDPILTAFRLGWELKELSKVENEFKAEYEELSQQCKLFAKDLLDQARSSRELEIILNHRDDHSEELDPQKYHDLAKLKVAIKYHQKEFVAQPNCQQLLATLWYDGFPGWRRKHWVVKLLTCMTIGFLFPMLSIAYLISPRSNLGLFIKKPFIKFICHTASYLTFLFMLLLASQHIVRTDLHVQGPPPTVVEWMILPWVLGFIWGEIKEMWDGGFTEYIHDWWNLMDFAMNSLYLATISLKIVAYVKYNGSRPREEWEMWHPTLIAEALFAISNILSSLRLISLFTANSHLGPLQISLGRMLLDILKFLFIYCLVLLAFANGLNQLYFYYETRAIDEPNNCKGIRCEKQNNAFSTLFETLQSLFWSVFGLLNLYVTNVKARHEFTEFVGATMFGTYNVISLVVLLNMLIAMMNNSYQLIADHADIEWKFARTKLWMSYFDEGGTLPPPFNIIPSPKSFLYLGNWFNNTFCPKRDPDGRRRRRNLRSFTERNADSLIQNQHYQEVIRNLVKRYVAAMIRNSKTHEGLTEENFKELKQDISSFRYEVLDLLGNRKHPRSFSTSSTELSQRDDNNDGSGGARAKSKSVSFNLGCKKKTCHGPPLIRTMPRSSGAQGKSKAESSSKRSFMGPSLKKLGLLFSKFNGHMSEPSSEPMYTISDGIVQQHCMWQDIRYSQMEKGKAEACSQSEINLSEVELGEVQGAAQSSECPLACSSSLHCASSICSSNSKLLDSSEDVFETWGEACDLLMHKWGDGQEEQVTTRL
The test is described as follows: Whole-cell patch clamp, block of LaCl3-activated TRPC5 inward current. The settings on record: TRPC5-expressing HEK293 TREx cells, 80 μM LaCl3, inward current, IC50 estimated from 5 μM and 500 nM, read-out: hTRPC5 Patch La3+ Inwd (nM) (All Batches). Format: cell-based. Here is the method:
In certain embodiments, exemplary compounds of Formula I and Formula II include the compounds described in Table 1 and in the Examples. A compound described herein may be tested for its ability to block both inward and outward currents through the TRPC5 channel, e.g., by an assay as described in Example 1. For example, IC50 of a compound of Formula I or Formula II was estimated by testing the compound at 5 μM and 500 nM. […] IC50 for a compound of Formula I or Formula II between 500 nM and 5 μM was similarly estimated. As shown, “A” refers to an IC50<100 nM. “B” refers to an IC50 between 100 nM and 500 nM. “C” refers to an IC50 between 500 nM and 1000 nM. “D” refers to an IC50 between 1 μM and 2 μM. “E” refers to an IC50 between 2 μM and 10 μM. “F” refers to […]. “ND” refers to compounds wherein the IC50 was not determined.
Patch clamp experiments permit the detection of currents through the TRPC5 channel in the cell line described above. In normal whole-cell patch clamp recordings, a glass electrode is brought into contact with a single cell and a high-resistance (gigaohm) seal is established with the cell membrane. The membrane is then ruptured to achieve the whole-cell configuration, permitting control of the voltage of the cell membrane and measurement of currents flowing across the membrane using the amplifier attached to the electrode and resulting in the replacement of cytoplasm with the pipette solution. A perfusion system permits control of the extracellular solution, including the addition of blockers and activators of the current. The current can be activated by including 1.4 μM free Ca^2+ in the pipette (intracellular) solution, and 80 μM LaCl3 in the extracellular solution.
TRPC5 cells were induced 20-48 hours, removed from growth plates, and replated at low density (to attain good single-cell physical separation) on glass coverslips for measurement. In some cases, cells were grown in low density overnight on glass coverslips. Patch clamp recordings were made in the whole-cell mode with a holding potential of −40 mV. Every 5 seconds, a voltage ramp was applied from −120 to +100 mV, 400 ms in duration. Currents elicited were quantified at −80 mV and +80 mV. The internal solution consisted of 140 mM cesium aspartate, 10 mM HEDTA, 2 mM CaCl2, 2.27 mM MgCl2 and 10 mM HEPES, pH 7.2, with 1,400 nM calculated free Ca^2+. The external solution consisted of 150 mM NaCl, 4.5 mM KCl, 1 mM MgCl2, 2 mM CaCl2, 10 mM HEPES, 10 mM glucose, 1 mM EGTA, pH 7.4. Upon addition of LaCl3, TRPC5 current was induced only in TRPC5-expressing cells and not in parental HEK293 TREx cells. Removal of the LaCl3 stimulus causes most of the current to go away. Potential blockers were tested for ability to block both inward and outward currents in the continued presence of LaCl3.
IC50 of a compound of Formula I or Formula II was estimated by testing the compound at 5 μM and 500 nM. […] IC50 for a compound of Formula I or Formula II between 500 nM and 5 μM was similarly estimated.
Consider `CCOC(=O)CCC(C)(C)c1nc2c(c(=O)n(C)c(=O)n2C)n1Cc1cccc(Br)c1` [Compound 84], for which the IC50 was 1000 to 2000 nM.
The figure for `CCCOCCc1nc2c(c(=O)n(C)c(=O)n2C)n1Cc1ccc(-c2ccccc2)cc1` [Compound 129, 7-(biphenyl-4-ylmethyl)-1,3-dimethyl-8-(2-propoxyethyl)-1H-purine-2,6(3H,7H)-dione] is 500 to 1000 nM; for `Cn1c(=O)c2c(nc(Cc3cccc(CO)c3)n2Cc2cccc(Br)c2)n(C)c1=O` [Compound 124] it is 2000 to 10000 nM.
With `Cn1c(=O)c2c(nc(CO)n2Cc2cccc(Br)c2)n(C)c1=O` [Compound 35], the IC50 was 2000 to 10000 nM.
Regarding `Cn1c(=O)c2c(nc(COCc3ccccc3)n2Cc2cccc(Br)c2)n(C)c1=O` [Compound 45], the IC50 was 2000 to 10000 nM.
As for `COc1cccc(Cn2c(Oc3cccc(OC(F)(F)F)c3)nc3c2c(=O)n(C)c(=O)n3C)c1` [Compound 160, 7-(3-methoxybenzyl)-1,3-dimethyl-8-(3-(trifluoromethoxy)phenoxy)-1H-purine-2,6(3H,7H)-dione], the IC50 was 100 to 500 nM.
The same measure for `CCCCc1cccc(Oc2nc3c(c(=O)n(C)c(=O)n3C)n2Cc2cccc(Br)c2)c1` [Compound 174, 7-(3-bromobenzyl)-8-(3-butylphenoxy)-1,3-dimethyl-1H-purine-2,6(3H,7H)-dione]: 2000 to 10000 nM; for `Cn1c(=O)c2c(nc(Oc3cccc(C(F)(F)F)c3)n2Cc2cccc(Cl)c2)n(C)c1=O` [Compound 137, 7-(3-Chlorobenzyl)-1,3-dimethyl-8-(3-(trifluoromethyl)phenoxy)-1H-purine-2,6(3H,7H)-dione]: 100 to 500 nM.
The figure for `C=Cc1nc2c(c(=O)n(C)c(=O)n2C)n1Cc1cccc(Br)c1` [Compound 41, 7-(3-Bromobenzyl)-1,3-dimethyl-8-vinyl-1H-purine-2,6(3H,7H)-dione] is 2000 to 10000 nM; for `Cc1ccc(Oc2nc3c(c(=O)n(C)c(=O)n3C)n2Cc2ccc(Cl)cc2)cc1C(F)(F)F` [Compound 199] it is 2000 to 10000 nM.
Turning to `CCc1coc(CSc2nc3c(c(=O)n(C)c(=O)n3C)n2Cc2ccc(C#N)cc2)n1` [Compound 169, 4-((8-((4-ethyloxazol-2-yl)methylthio)-1,3-dimethyl-2,6-dioxo-2,3-dihydro-1H-purin-7(6H)-yl)methyl)benzonitrile], the IC50 is 1000 to 2000 nM.
`CCCC(=O)C(C)(C)Sc1nc2c(c(=O)n(C)c(=O)n2C)n1Cc1cccc(Br)c1` [Compound 150, 7-(3-bromobenzyl)-1,3-dimethyl-8-(2-methyl-3-oxohexan-2-ylthio)-1H-purine-2,6(3H,7H)-dione]: the IC50 is less than 100 nM.
The figure for `Cn1c(=O)c2c(nc(Oc3ccc(C(F)(F)F)cc3)n2Cc2ccc(Cl)cc2)n(C)c1=O` [Compound 144] is 500 to 1000 nM; for `Cn1c(=O)c2c(nc(CCO)n2Cc2cccc(Br)c2)n(C)c1=O` [Compound 39, 7-(3-Bromobenzyl)-8-(2-hydroxyethyl)-1,3-dimethyl-1H-purine-2,6(3H,7H)-dione] it is 2000 to 10000 nM.
The same measure for `CCOCCSc1nc2c(c(=O)n(C)c(=O)n2C)n1Cc1cccc(Br)c1` [Compound 6, 7-(3-bromobenzyl)-8-(2-ethoxyethylthio)-1,3-dimethyl-1H-purine-2,6(3H,7H)-dione]: 100 to 500 nM; for `Cn1c(=O)c2c(nc(CN3CCOCC3)n2Cc2cccc(Br)c2)n(C)c1=O` [Compound 52]: 2000 to 10000 nM.
Regarding `CC(Cc1nc2c(c(=O)n(C)c(=O)n2C)n1Cc1cccc(Br)c1)C(=O)O` (stereo not drawn) [Compound 117, 3-(7-(3-Bromobenzyl)-1,3-dimethyl-2,6-dioxo-2,3,6,7-tetrahydro-1H-purin-8-yl)-2-methylpropanoic acid], the IC50 was 2000 to 10000 nM.
The figure for `CCOC(=O)C(C)(C)Cc1nc2c(c(=O)n(C)c(=O)n2C)n1Cc1cccc(Br)c1` [Compound 97, Ethyl 3-(7-(3-bromobenzyl)-1,3-dimethyl-2,6-dioxo-2,3,6,7-tetrahydro-1H-purin-8-yl)-2-2-dimethylpropanoate] is 100 to 500 nM.
The figure for `CCCOCCc1nc2c(c(=O)n(C)c(=O)n2C)n1Cc1cccc(CO)c1` [Compound 141] is 2000 to 10000 nM.
The same measure for `Cn1c(=O)c2c(nc(Oc3cccc(OC(F)(F)F)c3)n2Cc2cccc(OC(F)(F)F)c2)n(C)c1=O` [Compound 166, 1,3-dimethyl-7-(3-(trifluoromethoxy)benzyl)-8-(3-(trifluoromethoxy)phenoxy)-1H-purine-2,6(3H,7H)-dione]: 100 to 500 nM; for `Cc1ccc(Cn2c(Oc3cccc(OC(F)(F)F)c3)nc3c2c(=O)n(C)c(=O)n3C)cc1` [Compound 178, 1,3-dimethyl-7-(4-methylbenzyl)-8-(3-(trifluoromethoxy)phenoxy)-1H-purine-2,6(3H,7H)-dione]: 100 to 500 nM; for `Cn1c(=O)c2c(nc(Oc3cccc(OC(F)(F)F)c3)n2Cc2cc(Cl)cc(Cl)c2)n(C)c1=O` [Compound 204, 7-(3,5-dichlorobenzyl)-1,3-dimethyl-8-(3-(trifluoromethoxy)phenoxy)-1H-purine-2,6(3H,7H)-dione]: less than 100 nM.
With `CCCOCCc1nc2c(c(=O)n(C)c(=O)n2C)n1Cc1cccc(C(N)=O)c1` [Compound 121], the IC50 was 2000 to 10000 nM.
As to `CNCc1cccc(Oc2nc3c(c(=O)n(C)c(=O)n3C)n2Cc2cccc(Cl)c2)c1` [Compound 152, hydrochloride], the IC50 was 2000 to 10000 nM.
The figure for `CC1CCN(Cc2nc3c(c(=O)n(C)c(=O)n3C)n2Cc2cccc(Br)c2)CC1` [Compound 44] is 2000 to 10000 nM.
The same measure for `Cn1c(=O)c2c(nc(Oc3cccc(C(F)(F)F)c3)n2-c2ccc(Cl)cc2)n(C)c1=O` [Compound 196]: 2000 to 10000 nM; for `Cn1c(=O)c2c(nc(/C=C/c3ccccc3)n2Cc2cccc(Br)c2)n(C)c1=O` [Compound 32]: 2000 to 10000 nM; for `CCCOCCc1nc2c(c(=O)n(C)c(=O)n2C)n1Cc1ccc(OC)cc1` [Compound 89]: 2000 to 10000 nM.
The figure for `CNCc1cccc(Oc2nc3c(c(=O)n(C)c(=O)n3C)n2Cc2ccc(Cl)cc2)c1` [Compound 163, 7-(4-Chlorobenzyl)-1,3-dimethyl-8-(3-((methylaminol)methyl)phenoxy)-1H-purine-2,6(3H,7H)-dione hydrochloride] is 2000 to 10000 nM; for `COc1cccc(Cn2c(Oc3ccc(Br)cc3)nc3c2c(=O)n(C)c(=O)n3C)c1` [Compound 194, 8-(4-bromophenoxy)-7-(3-methoxybenzyl)-1,3-dimethyl-1H-purine-2,6(3H,7H)-dione] it is 1000 to 2000 nM.
